# Results reported in article PMC2841147, “The inhaled phosphodiesterase 4 inhibitor GSK256066 reduces allergen challenge responses in asthma” (Respiratory Research, 2010).
# Where two headings read alike, the source gives them in different places.
# Key:
# [1] = system: steroid naive atopic asthmatics; experiment: Safety and tolerability (adverse events); assay type: in vivo, human; details: inhaled 87.5 mcg once per day for 7 days
# Procedure: (§1) This was a two centre, double-blind, randomised, placebo controlled, cross-over study. Eligible subjects were randomised to receive GSK256066 87.5 μg or matching placebo using an Accuhaler™ once daily for 7 days - see Fig 1. The washout period was 14 - 21 days between treatment periods. Dosing was performed under supervision at the sites on Day 1 and Day 7. On days 2-6 subjects were instructed to take the study medication at the same time of day, and were required to complete a diary card to document the time that medication was taken. Heart rate, blood pressure, ECGs, FEV1 and exhaled nitric oxide (FeNO) were measured pre-dose on days 1 and 7, and at 1 hr post-dose. On day 7, an inhaled allergen challenge was subsequently performed after the 1 hour post-dose FEV1 and FeNO measurements. Methacholine challenge was then performed at 24 hours post allergen challenge. Adverse events and beta agonist use were monitored throughout the study with the aid of diary cards.
# [2] = system: steroid naive atopic asthmatics; experiment: Lung function (FEV1) pre-dose and 1 hr post-dose; assay type: in vivo, human; details: for FEV1: mean; for FEV1 adjusted treatment difference GSK256066 vs placebo: adjusted mean (95% confidence intervals)
# Procedure: as §1
# (§2) Minimum LAR was derived as the minimum FEV1 value over 4-10 hrs post allergen challenge. Minimum EAR was derived as the minimum FEV1 over 0-2 hrs post allergen challenge. Weighted mean LAR and EAR endpoints were derived by calculating the AUC over the relevant time interval using the linear trapezoidal rule and dividing by the time interval. The sample size was based on a power calculation using our previous allergen challenge data; in order to detect a 50% attenuation of the minimum LAR, with 90% power at the two-sided 5% significance level, 23 evaluable were required. Statistical analysis was performed on each of the absolute change from baseline LAR and EAR endpoints to compare GSK256066 with placebo. A mixed effects model was fitted with the factors treatment, period and Day 7 post-saline FEV1 as fixed effects and subject as a random effect. Absolute change from post-saline FEV1 data over planned relative time were obtained from a repeated measures statistical analysis, adjusting for the terms of period, treatment group, period-level post-saline baseline, subject-level post-saline baseline, planned relative time, treatment group by planned relative time interaction and period-level post-saline baseline by planned relative time interaction as fixed effects and subject as a random effect. Day 7 FEV1 data (pre-dose and 1 h post-dose) were also analysed using a mixed effects model, adjusting for the fixed effects treatment, period and Day 1 pre-dose FEV1 and the random effect subject. Statistical analysis was performed on the log2-transformed values of the provocative concentration of methacholine required to produce a 20% reduction in FEV1 (PC20) to compare GSK256066 with placebo. A mixed effects model was fitted with the factors treatment and period treated as fixed effects and subject as a random effect. FeNO change from baseline ratio at all time points were analysed following a loge-transformation to compare GSK256066 with placebo. A mixed effects model was fitted with the fixed effects period, treatment group, subject-level loge-transformed baseline, period-level loge-transformed baseline, planned relative time, treatment group by planned relative time interaction term and period-level loge-transformed baseline by planned relative time interaction term and the random effect subject.
# [3] = Plasma pharmacokinetics after inhalation (HPLC/MS/MS); assay type: in vivo, human; details: for Tlast / Tmax: median (range); for AUC(0-t): 87.5 ug
# Procedure: On days 1 and 7, blood samples were collected at pre-dose, 10 min, 30 min, 45 min and 1, 2, 3, 4, 6, 8, 10, 11, 12 and 24 hrs post dose for measurement of the levels of GSK256066 in plasma. […] These pharmacokinetic analyses were performed by protein precipitation, followed by HPLC/MS/MS. The lower limit of quantification (LLOQ) for GSK256066 and GSK614917 was 5 pg/mL, with an upper limit of quantification of 2000 pg/mL
# Values for the following pharmacokinetic were estimated directly from raw plasma concentration data: maximum plasma concentration (Cmax), time of maximum observed concentration (Tmax), and time of the last observable concentration (Tlast). Area under the plasma concentration-time curve from time zero to Tlast (AUC (0-t)) was estimated for subjects with at least 3 consecutive observable concentration values with the log up/linear down trapezoidal method using Winnonlin professional version 5.2 (Pharsight Corporation, Cary, NC, USA).
# [4] = system: steroid naive atopic asthmatics; experiment: Methacholine challenge 24 hours post allergen challenge; assay type: in vivo, human
# Procedure: as §1, with “cards. […]” for “cards.”
# Minimum LAR was derived as the minimum FEV1 value over 4-10 hrs post allergen challenge. […] Day 7 FEV1 data (pre-dose and 1 h post-dose) were also analysed using a mixed effects model, adjusting for the fixed effects treatment, period and Day 1 pre-dose FEV1 and the random effect subject. […] FeNO change from baseline ratio at all time points were analysed following a loge-transformation to compare GSK256066 with placebo. […]
# [5] = system: steroid naive atopic asthmatics; experiment: Inhaled allergen challenge (EAR and LAR) after 7 days treatment; assay type: in vivo, human; details: inhaled 87.5 μg once daily for 7 days
# Procedure: as §1
# Bronchial challenges were performed as we have previously described using a Mefar Dosimeter (Mefar-Bologna). Allergen for skin prick tests (Soluprick SQ, Alk Abelló (UK) Ltd) was stored at 4°C; each subject was assessed for sensitivity to house dust mite, cat, grass pollen, and positive and negative controls. The allergen for inhalation was selected according to the largest skin test wheal (positive >3 mm) and clinical history. Fresh solutions of allergen were made up in 0.9% saline in doubling concentrations from 250 SQ-U/ml to 32 000 SQ-U/ml. At screening, incremental doses of allergen were inhaled until an early asthmatic response (EAR) was observed, defined as a fall in FEV1 of ≥ 20% from the post saline value, on at least one occasion, between 5 and 30 minutes after the final concentration of allergen. The late asthmatic response (LAR) was defined as a fall in FEV1 of ≥ 15% from the post saline value, on at least three occasions, two of which must be consecutive, between 4 and 10 hours after the final concentration of allergen. During the treatment periods, the total dose of allergen required to cause an EAR and LAR was administered as a single bolus dose.
# Minimum LAR was derived as the minimum FEV1 value over 4-10 hrs post allergen challenge. Minimum EAR was derived as the minimum FEV1 over 0-2 hrs post allergen challenge. Weighted mean LAR and EAR endpoints were derived by calculating the AUC over the relevant time interval using the linear trapezoidal rule and dividing by the time interval. […] Day 7 FEV1 data (pre-dose and 1 h post-dose) were also analysed using a mixed effects model, adjusting for the fixed effects treatment, period and Day 1 pre-dose FEV1 and the random effect subject. […]
# PDE4 = details: cited from earlier work
# [6] = system: steroid naive atopic asthmatics; experiment: Exhaled nitric oxide (FeNO); assay type: in vivo, human; details: for Exhaled nitric oxide: mean
# Procedure: as §1
# FeNO was measured using the Ecomedics AG analyser CLD 88 at a flow of 50 ml/s. Three acceptable readings were recorded from each subject and the mean was used for analysis.
# as §2, with “Statistical analysis was performed on the log2-transformed values of the provocative concentration of methacholine required to produce a 20% reduction in FEV1 (PC20) to compare GSK256066 with placebo. A mixed effects model was fitted with the factors treatment and period treated as fixed effects and subject as a random effect.” left out, “A mixed effects model was fitted with the fixed effects period, treatment group, subject-level loge-transformed baseline, period-level loge-transformed baseline, planned relative time, treatment group by planned relative time interaction term and period-level loge-transformed baseline by planned relative time interaction term and the random effect subject.” left out
# patients with COPD = system: patients with COPD; parameters: method as in PMID 19213793; details: inhaled, after 6 weeks of treatment; cited from earlier work
# [7] = parameters: method as in PMID 17192499; details: cited from earlier work
# asthmatic subjects = system: asthmatic subjects; parameters: method as in PMID 16083782; details: orally administered; cited from earlier work
smiles,measurement,setting,value
COc1cccc(Nc2c(C(N)=O)cnc3c(C)cc(S(=O)(=O)c4cccc(C(=O)N(C)C)c4)cc23)c1 [GSK256066],Nausea and/or gastro-intestinal side effects,[1],lack of nausea and/or gastro-intestinal side effects
same,Tolerability / adverse effects,[1],well tolerated
same,FEV1,[2]; Day 1 Pre-dose,3.29 (2.88 to 3.69) L
same,FEV1 adjusted treatment difference GSK256066 vs placebo,[2]; Day 7 1 hr post-dose,0.09 (-0.08 to 0.27) L
same,FEV1,[2]; Day 7 1 hr post-dose,3.47 (3.04 to 3.90) L
same,FEV1 adjusted treatment difference GSK256066 vs placebo,[2]; Day 7 Pre-dose,0.09 (-0.03 to 0.20) L
same,FEV1,[2]; Day 7 Pre-dose,3.36 (2.94 to 3.79) L
same,Subjects with plasma concentrations above the LLOQ,"[3]; Day 1, LLOQ 5 pg/mL",18 out of 22
same,Cmax,"[3]; Day 1, inhaled 87.5 μg, plasma, geometric mean (CV%), N = 18",18.3 (68) Pg/mL
same,Tlast,[3]; Day 1,3.0 (0.5-6.0) h
same,Subjects with drug levels below the LLOQ after 4 hrs post dose,"[3]; Day 1, of the 22 subjects, LLOQ 5 pg/mL",18 subjects
same,Subjects with drug levels below the LLOQ after 4 hrs post dose,"[3]; Day 7, LLOQ 5 pg/mL",10 of the 19
same,Subjects with levels above the LLOQ after 12 hrs,"[3]; Day 7, LLOQ 5 pg/mL",1 subject
same,Subjects with plasma concentrations above the LLOQ,"[3]; Day 7, LLOQ 5 pg/mL",17 out of 19
same,Cmax,"[3]; Day 7, inhaled 87.5 μg once daily, plasma, geometric mean (CV%), n = 17",17.3 (63) Pg/mL
same,Tlast,[3]; Day 7,4.0 (1.0-24) h
same,Tmax,[3]; Day 7,1.0 (0.17-11.0) h
same,Tlast range in this study,[3]; days 1 and 7,0.5 to 24 h
same,AUC(0-t),"[3]; human, plasma, inhaled or intranasal, Day 1, inhaled 87.5 μg, plasma, geometric mean (CV%), N = 18",0.0368 ng·h/mL
same,AUC(0-t),"[3]; human, plasma, inhaled or intranasal, Day 7, inhaled 87.5 μg once daily, plasma, geometric mean (CV%), n = 17",0.0648 ng·h/mL
same,Cmax,"[3]; human, plasma, inhaled or intranasal, 87.5 μg, on both days 1 and 7, inhaled, read-out: Mean Cmax",< 0.02 ng/mL
same,Tmax,"[3]; human, plasma, inhaled, 87.5 μg, Day 1, read-out: Tmax",1 h
same,"Methacholine PC20 doubling dose difference vs placebo, geometric mean (95% CI)",[4],-0.31 (-1.18 to 0.57)
same,Methacholine PC20,"[4]; after 7 days treatment, placebo 0.39",0.31 mg/mL
same,EAR: inhibition of the fall in weighted mean FEV1 compared to placebo,"[5]; 0-2 hrs post allergen, p = 0.014",57.2%
same,LAR: attenuation of the fall in weighted mean FEV1 compared to placebo,"[5]; 4-10 hrs post allergen, p = 0.005",34.3%
same,EAR: inhibition of the fall in minimum FEV1 compared to placebo,"[5]; minimum FEV1 0-2 hrs post allergen, p = 0.014",40.9%
same,LAR: attenuation of the fall in minimum FEV1 compared to placebo,"[5]; minimum FEV1 4-10 hrs post allergen, p = 0.007",26.2%
same,Affinity and binding mode at PDE4,PDE4,"very high affinity, slow- and tight-binding inhibitor"
same,"Selectivity for PDE4 over other PDEs such as 1, 2, 3, 5, 6 and 7",PDE4,highly selective
same,Exhaled nitric oxide,[6]; Day 1 Pre-dose,39.9 (31.0 to 51.3) ppb
same,Exhaled nitric oxide adjusted treatment ratio GSK256066 vs placebo,"[6]; Day 7 1 hr post-dose, adjusted mean (95% confidence intervals)",1.03 (0.88 to 1.20)
same,Exhaled nitric oxide,[6]; Day 7 1 hr post-dose,36.1 (28.1 to 46.3) ppb
same,Exhaled nitric oxide,[6]; Day 7 Pre-dose,34.7 (26.7 to 45.0) ppb
"Cc1ccc(O)c(C(=O)N[C@H]2CC[C@@H](NC(=O)c3cc(F)cnc3Oc3ccc(F)c(F)c3)CC2)c1 [UK-500,001]",Effect on FEV1,patients with COPD,no effect
O=C(Nc1c(Cl)c[n+]([O-])cc1Cl)c1ccc(OC(F)F)c(OCC2CC2)c1 [roflumilast N-Oxide],Plasma levels of the active metabolite compared with roflumilast Cmax,[7]; after oral roflumilast,even higher
O=C(Nc1c(Cl)cncc1Cl)c1ccc(OC(F)F)c(OCC2CC2)c1 [roflumilast],Mean Cmax,[7]; administered orally,"over 2,000 pg/ml"
same,Inhibition of the maximal fall in the EAR,asthmatic subjects,14%
same,Inhibition of the maximal fall in the LAR,asthmatic subjects,33%
